Some test systems named below: A549; CCRF-CEM; COLO 205; DU-145; EKVX; HCT-116; HL-60; IGROV-1; KM12; MDA-MB-231; Malme-3M; NCI-H460; NCI-H522; NCI/ADR-RES; OVCAR-3; OVCAR-4; RXF 393; SNB-19; UACC-257; UO-31.
Test in all cases: NCI-60 cell line screen, 48 h

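Step 1: Grow cells in 96-well plates. Step 2: Expose to compound for 48 hours at 5 concentrations. Step 3: Interpolate endpoints linearly; if unreached, use highest concentration. GI50: concentration for 50% inhibition of growth.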 Active and inactive are the calls of the source. No stated cut-off is given here; in the data, active = GI50 up to about 1.1 µM and inactive = higher.

With `COc1cc2c(c(O)c1C)C(=O)C(Cl)=CC2=O`, the GI50 was 22.1 µM (inactive) in the experiment with A549; 0.918 µM (active) in the experiment on CCRF-CEM; 2.16 µM (inactive) in the experiment on COLO 205; 6.46 µM (inactive) with DU-145; 16 µM (inactive) in the experiment on EKVX; 8.28 µM (inactive) in the experiment with HCT-116. The GI50 in the experiment with HL-60 was 0.933 µM (active); in the experiment with IGROV-1, 20.4 µM (inactive); in the experiment with KM12, 19.5 µM (inactive); in the experiment with MDA-MB-231, 12 µM (inactive); with Malme-3M, 4.21 µM (inactive); with NCI-H460 it was 24.9 µM (inactive). The GI50 in the experiment on NCI-H522 is 2.36 µM (inactive); with NCI/ADR-RES, 22.6 µM (inactive); in the experiment on OVCAR-3 it was 9.91 µM (inactive); in the experiment on OVCAR-4 it was 11.8 µM (inactive); in the experiment with RXF 393 it was 6.31 µM (inactive); in the experiment on SNB-19, 42.3 µM (inactive). Moreover, the GI50 with UACC-257 was 9.95 µM (inactive); in the experiment on UO-31 it was 10.4 µM (inactive).
For `CC(C)C(OC(=O)c1ccc(NCc2cc(O)ccc2O)cc1)C(C)C`, the GI50 was 5.77 µM (inactive) in the experiment on A549; 0.102 µM (active) in the experiment with CCRF-CEM; 0.865 µM (active) in the experiment on COLO 205; 7.01 µM (inactive) in the experiment with DU-145; 1.81 µM (inactive) in the experiment on EKVX; 2.76 µM (inactive) in the experiment with HCT-116. The GI50 is 0.135 µM (active) in the experiment with HL-60; 0.855 µM (active) with IGROV-1; 2.6 µM (inactive) with KM12; 2.07 µM (inactive) with MDA-MB-231; 1.77 µM (inactive) in the experiment with Malme-3M; 3.5 µM (inactive) with NCI-H460. Moreover, the GI50 was 0.16 µM (active) with NCI-H522; 1.42 µM (inactive) in the experiment on NCI/ADR-RES; 1.36 µM (inactive) with OVCAR-3; 1.47 µM (inactive) with OVCAR-4; 0.479 µM (active) in the experiment on RXF 393; 1.29 µM (inactive) with SNB-19. Further, the GI50 in the experiment on UACC-257 is 1.39 µM (inactive); in the experiment with UO-31 it was 1.17 µM (inactive).
Consider `CN(C)CCCN1c2ccc3ccccc3c2Sc2cccc(Cl)c21`, for which the GI50 in the experiment with A549 is 5.81 µM (inactive); with CCRF-CEM it was 1.52 µM (inactive); with COLO 205, 1.85 µM (inactive); with DU-145, 4.54 µM (inactive); in the experiment with EKVX, 2.38 µM (inactive); in the experiment with HCT-116, 3.79 µM (inactive). For the same compound, the GI50 in the experiment on HL-60 is 1.63 µM (inactive); in the experiment with IGROV-1 it was 1.54 µM (inactive); with KM12, 2.08 µM (inactive); with MDA-MB-231 it was 2.32 µM (inactive); with Malme-3M, 5.13 µM (inactive); with NCI-H460, 1.77 µM (inactive). For the same compound, the GI50 in the experiment on NCI-H522 is 2.61 µM (inactive); in the experiment with NCI/ADR-RES, 5.56 µM (inactive); in the experiment on OVCAR-3, 2.89 µM (inactive); in the experiment on OVCAR-4 it was 4.4 µM (inactive); with RXF 393 it was 3.82 µM (inactive); in the experiment on SNB-19 it was 5.87 µM (inactive). The values for the GI50 with UACC-257 and in the experiment on UO-31 were 1.69 µM (inactive) and 2.79 µM (inactive), respectively.
With `CCN(CC)c1c(N(CC)CC)c(=O)c1=O`, the GI50 in the experiment with A549 was 22.5 µM (inactive); with CCRF-CEM, 3.53 µM (inactive); in the experiment on COLO 205 it was 2.63 µM (inactive); in the experiment with DU-145, 9.31 µM (inactive); with EKVX, 14.9 µM (inactive); in the experiment with HCT-116, 8.07 µM (inactive). The GI50 in the experiment on HL-60 was 2.23 µM (inactive); with IGROV-1, 2.81 µM (inactive); in the experiment with KM12, 22.6 µM (inactive); in the experiment on MDA-MB-231, 7.55 µM (inactive); with Malme-3M, 3.25 µM (inactive); in the experiment on NCI-H460, 39.5 µM (inactive). Also, the GI50 in the experiment with NCI-H522 is 2.14 µM (inactive); in the experiment with NCI/ADR-RES it was 24.4 µM (inactive); in the experiment on OVCAR-3, 9.71 µM (inactive); with OVCAR-4, 18.9 µM (inactive); in the experiment on RXF 393, 11.3 µM (inactive); with SNB-19 it was > 63.8 µM (inactive). Moreover, the GI50 in the experiment on UACC-257 is 9.48 µM (inactive); in the experiment with UO-31, 5.32 µM (inactive).
Turning to `CC1(C)C=C(S(=O)(=O)c2ccccc2)Oc2ccccc2O1`, the GI50 was 41 µM (inactive) with A549; 40.1 µM (inactive) in the experiment with CCRF-CEM; 18.8 µM (inactive) in the experiment with COLO 205; 91 µM (inactive) with DU-145; 23.1 µM (inactive) with EKVX; 29.5 µM (inactive) in the experiment with HCT-116. In addition, the GI50 in the experiment with HL-60 was 20.5 µM (inactive); in the experiment on IGROV-1, 44.2 µM (inactive); with KM12 it was 43.6 µM (inactive); in the experiment on MDA-MB-231 it was > 100 µM (inactive); with Malme-3M, 26.2 µM (inactive); with NCI-H460, 35.2 µM (inactive). Besides, the GI50 was 40.9 µM (inactive) in the experiment on NCI-H522; 52.1 µM (inactive) in the experiment with NCI/ADR-RES; 50.4 µM (inactive) with OVCAR-3; 37.4 µM (inactive) in the experiment on OVCAR-4; 34.8 µM (inactive) with RXF 393; 62.5 µM (inactive) in the experiment on SNB-19. In addition, the GI50 with UACC-257 was 38 µM (inactive); in the experiment on UO-31 it was 20.7 µM (inactive).
As to `CS(=O)(=O)OC1CCN(C2(c3cccc(O)c3)CCCCC2)CC1`, the GI50 is > 100 µM (inactive) with A549; 22.6 µM (inactive) in the experiment with CCRF-CEM; 32.6 µM (inactive) in the experiment with COLO 205; 82.6 µM (inactive) in the experiment with DU-145; 92.7 µM (inactive) in the experiment with EKVX; 31.8 µM (inactive) in the experiment with HCT-116. Further, the GI50 in the experiment on HL-60 was 16.5 µM (inactive); in the experiment with IGROV-1 it was 28.7 µM (inactive); in the experiment with KM12, > 100 µM (inactive); in the experiment on MDA-MB-231 it was 73.5 µM (inactive); in the experiment with Malme-3M, > 100 µM (inactive); in the experiment on NCI-H460 it was 48.5 µM (inactive). The GI50 in the experiment on NCI-H522 is > 100 µM (inactive); in the experiment on NCI/ADR-RES, 48.1 µM (inactive); in the experiment on OVCAR-3, > 100 µM (inactive); in the experiment with OVCAR-4 it was 43 µM (inactive); in the experiment on RXF 393, 64.6 µM (inactive); with SNB-19, > 100 µM (inactive). For the same compound, the GI50 was 38.4 µM (inactive) with UACC-257 and 44.7 µM (inactive) with UO-31.
For `CN(C)CC1CCCc2ccccc2C1=O` (stereo not given), the GI50 with A549 is 20.3 µM (inactive); in the experiment with CCRF-CEM, 0.107 µM (active); in the experiment on COLO 205, 5.14 µM (inactive); in the experiment on DU-145, 6.1 µM (inactive); in the experiment with EKVX it was 1.85 µM (inactive); in the experiment on HCT-116, 1.85 µM (inactive). Besides, the GI50 in the experiment on HL-60 was 2.66 µM (inactive); in the experiment on IGROV-1, 2.06 µM (inactive); with KM12 it was 1.98 µM (inactive); in the experiment on MDA-MB-231, 5.07 µM (inactive); in the experiment with Malme-3M it was 1.77 µM (inactive); with NCI-H460, 19.6 µM (inactive). Moreover, the GI50 with NCI-H522 is 0.16 µM (active); in the experiment on NCI/ADR-RES, 3.32 µM (inactive); with OVCAR-3, 1.82 µM (inactive); in the experiment on OVCAR-4, 0.839 µM (active); in the experiment on RXF 393, 6.55 µM (inactive); with SNB-19 it was 13 µM (inactive). For the same compound, the GI50 was 6.1 µM (inactive) in the experiment on UACC-257 and 1.9 µM (inactive) with UO-31.
Take `Cn1c2c3c(F)c(F)ccc3nc-2cc2ccccc21`: the GI50 was 2.34 µM (inactive) with A549; 1.91 µM (inactive) in the experiment on CCRF-CEM; 2.08 µM (inactive) in the experiment on COLO 205; 1.34 µM (inactive) in the experiment with DU-145; 12.4 µM (inactive) in the experiment on EKVX; 0.125 µM (active) in the experiment with HCT-116. Moreover, the GI50 in the experiment on HL-60 was 13 µM (inactive); in the experiment with IGROV-1 it was 3.42 µM (inactive); in the experiment on KM12, 0.927 µM (active); in the experiment on MDA-MB-231, 3.3 µM (inactive); in the experiment with Malme-3M it was 2.7 µM (inactive); in the experiment on NCI-H460 it was 1.04 µM (active). Further, the GI50 in the experiment with NCI-H522 was 3.03 µM (inactive); in the experiment with NCI/ADR-RES it was 1.49 µM (inactive); with OVCAR-3 it was 2.33 µM (inactive); in the experiment with OVCAR-4, 10.1 µM (inactive); in the experiment with RXF 393 it was 4.05 µM (inactive); in the experiment on SNB-19, 3.79 µM (inactive). For the same compound, the GI50 with UACC-257 is 3.83 µM (inactive); in the experiment on UO-31, 1.36 µM (inactive).
Turning to `C#C[C@]1(O)CC[C@H]2[C@@H]3CCC4=C/C(=N\OCCN5CCCC5)CC[C@]4(C)[C@H]3CC[C@@]21C`, the GI50 in the experiment with A549 was 15.7 µM (inactive); with CCRF-CEM, 14.6 µM (inactive); in the experiment on COLO 205, 13.7 µM (inactive); in the experiment on DU-145, 19 µM (inactive); with EKVX it was 12.9 µM (inactive); in the experiment with HCT-116, 8.36 µM (inactive). For the same compound, the GI50 in the experiment with HL-60 was 5.35 µM (inactive); with IGROV-1 it was 4.79 µM (inactive); in the experiment with KM12 it was 5.36 µM (inactive); with MDA-MB-231 it was 19.2 µM (inactive); in the experiment with Malme-3M, 10.8 µM (inactive); with NCI-H460 it was 17.7 µM (inactive). Moreover, the GI50 in the experiment on NCI-H522 was 3.57 µM (inactive); with NCI/ADR-RES it was 9.95 µM (inactive); in the experiment on OVCAR-3 it was 10.9 µM (inactive); in the experiment on OVCAR-4, 20.6 µM (inactive); in the experiment on RXF 393, 13.5 µM (inactive); in the experiment on SNB-19 it was 15.3 µM (inactive). Also, the GI50 in the experiment on UACC-257 was 8.13 µM (inactive); with UO-31 it was 15.7 µM (inactive).
With `COc1cc(-c2cc(=O)c3c(OC)c(OC)c(OC)cc3o2)c(OC)c(OC)c1OC`, the GI50 in the experiment on A549 is > 75 µM (inactive); in the experiment with CCRF-CEM it was 65.2 µM (inactive); with COLO 205, > 75 µM (inactive); in the experiment with DU-145, > 75 µM (inactive); with EKVX it was > 75 µM (inactive); with HCT-116, > 75 µM (inactive). Moreover, the GI50 is 16.9 µM (inactive) with HL-60; > 75 µM (inactive) with IGROV-1; > 75 µM (inactive) with KM12; 63.4 µM (inactive) in the experiment with MDA-MB-231; > 75 µM (inactive) in the experiment on Malme-3M; > 75 µM (inactive) with NCI-H460. For the same compound, the GI50 is > 75 µM (inactive) in the experiment on NCI-H522; 36.9 µM (inactive) with NCI/ADR-RES; 51.2 µM (inactive) with OVCAR-3; 41.1 µM (inactive) in the experiment on OVCAR-4; 52.1 µM (inactive) in the experiment with RXF 393; > 75 µM (inactive) with SNB-19. The GI50 in the experiment with UACC-257 was > 75 µM (inactive); with UO-31 it was 57.3 µM (inactive).
